Tests used:
Type in all cases: in vivo
[1] = test system: blast disease fungus (race 007); experiment: Blast disease assay after BTH treatment in non-transformed and OsWRKY45 RNAi rice plants; conditions: 0.5 mM BTH sprayed at 4-leaf stage, inoculated 2 days later, counted after 7 days
Text: FIG. 8 is a graph depicting the results of inducing the blast disease resistance by BTH in rice plants in which OsWRKY45 expression is suppressed. A blast disease fungus was inoculated into non-transformed rice plants, either treated or not treated with BTH, and BTH-treated rice plants in which OsWRKY45 expression was suppressed. After seven days, the number of blotches on the 10-cm long central part of leaf blades was counted in each plant.
In order to examine the effect of suppression of OsWRKY45 expression on the blast disease resistance induced in rice by BTH treatment, non-transformed rice plants and transformed lines of rice plant in which the suppression of OsWRKY45 expression by RNAi had been confirmed were sprayed with 0.5 mM BTH at the 4-leaf stage, and then inoculated with a compatible blast disease fungus (race 007) 2 days later. After 7 days, the blotches present on the 10-cm long central part of leaf blades were counted in each plant body.

[2] = test system: PR1b and OsWRKY45 expression; experiment: Induction of PR1b and OsWRKY45 expression by BTH in NH1 RNAi rice plants (RT-PCR); conditions: rice plants in which NH1 was suppressed by RNAi
Text: FIG. 10 is composed of photographs depicting OsWRKY45 expression in rice plants in which the expression of NH1, a rice NPR1 homolog, is suppressed by RNAi. Two lines (#7 and #14) in which the NH1 expression was suppressed by RNAi were BTH-treated or mock-treated to examine the induction of expression of PR1b and OsWRKY45 by RT-PCR.
Recently, it was reported that in Arabidopsis thaliana, the resistance to a filamentous fungus, Erysiphe cichoracearum, was enhanced by the introduction of WRKY70, a WRKY transcription factor (Li, J., Brader, G., Kariola, T., and Palva, E. T. (2006). WRKY70 modulates the selection of signaling pathways in plant defense. Plant J. 46, 477-491). […] From these findings, WRKY70 is thought to be a transcription factor downstream of NPR1. Thus, for comparison of functions between WRKY70 and OsWRKY45, the induction of PR1b and OsWRKY45 expressions by BTH was examined in rice plants in which NH1, a rice NPR1 homolog (Chern, M., Fitzgerald, H. A., Canlas, P. E., Navarre, D. A., and Ronald, P. C. (2005). Overexpression of a rice NPR1 homolog leads to constitutive activation of defense response and hypersensitivity to light. Mol. Plant-Microbe Int. 18, 511-520) was suppressed by RNAi.

OsWRKY45 = experiment: Induction of OsWRKY45 gene expression by BTH treatment (Northern blot analysis); conditions: rice seedlings 3.5-leaf stage, 0.5 mM BTH, leaves
Description: FIG. 1 depicts the induction of OsWRKY45 gene expression by BTH treatment. Rice plants at the 3.5-leaf stage were treated with BTH, and RNAs were prepared from leaves over time and subjected to Northern analysis. For comparison, two types of PR genes (PR1b and PBZ1) were also examined for induction of expression.
In order to detect a transcription factor gene inducibly expressed by BTH, rice seedlings (3.5-leaf stage) on day 10 after seeding were treated with 0.5 mM BTH (in 0.01% Tween 20/0.5% acetone), and the RNAs prepared over time (12, 24, 72, and 120 hours after the treatment) from BTH-treated and mock-treated rice leaves were subjected to DNA microarray analysis with the rice 22K array (Agilent). As a result, a WRKY transcription factor gene (OsWRKY45, AK066255; SEQ ID NOs: 1 and 2) that is inducibly expressed by BTH treatment was found.

c1ccc2snnc2c1 [BTH, benzothiadiazole]
blotches on the 10-cm long central part of leaf blades ([1]; non-transformed rice): Almost no blotches were observed | blotches on the 10-cm long central part of leaf blades ([1]; rice with OsWRKY45 expression suppressed by RNAi): nearly equal number of blotches to that in non-treated, non-transformed rice plants | induction of OsWRKY45 expression by BTH [2]: not affected at all | induction of PR1b expression by BTH [2]: completely lost | time after BTH treatment within which OsWRKY45 expression was induced (OsWRKY45): ≤ 3 h

From US8373021B2, “Improving disease resistance in plants by introducing transcription factor gene” (priority 2005, dated 2013)
